Source: US7262309B2, “1- or 3-thia-benzonaphthoazulenes as inhibitors of tumor necrosis factor production and intermediates for the preparation thereof” (GlaxoSmith Kline Istrazivocki Centar Zagreb, D.O.O., priority 2002, dated 2007)

System: TNF-α and IL-1 secretion
Experiment: investigated assays, not specified which (TNF-α/IL-1 secretion in human PBMC and in mouse peritoneal macrophages, LPS-induced TNF-α/IL-1 secretion in mice, writhing assay, LPS-induced shock in mice)
Conditions: assays not named; active = IC-50 20 μM or lower (PBMC), 10 μM or lower (macrophages), 30% or more inhibition of TNF-α at 10 mg/kg, analgetic activity as acetylsalicylic acid or better, survival 40% or more at 30 mg/kg
Protocol: Human peripheral blood mononuclear cells (PBMC) were prepared from heparinized whole blood after separating PBMC on Ficoll-Paque™Plus (Amersham-Pharmacia). To determine the TNF-α level, 3.5-5×10^4 cells were cultivated in a total volume of 200 μl for 18 to 24 hours on microtitre plates with a flat bottom (96 wells, Falcon) in RPMI 1640 medium, into which there were added 10% FBS (Fetal Bovine Serum, Biowhittaker) previously inactivated at 54° C./30 min, 100 units/ml of penicillin, […] of streptomycin and 20 mM HEPES (GIBCO). The cells were incubated at 37° C. in an atmosphere with 5% CO2 and 90% humidity. […] The IL-1 level was determined in an assay under the same conditions and with the same number of cells and the same concentration of the stimulus by ELISA procedure (R&D Systems). The percentage of inhibition of TNF-α or IL-1 production was calculated by the equation: % inhibition=[1−(TS−NC)/(PC−NC)]*100. […]
In order to obtain peritoneal macrophages, Balb/C mouse strain males, age 8 to 12 weeks, were injected i.p. with 300 μg of zymosan (SIGMA) dissolved in a phosphate buffer (PBS) in a total volume of 0.1 ml/mouse. […] The TNF-α level in the cell supernatant was determined by ELISA procedure (R&D Systems, Biosource). The IL-1 level was determined in an assay identical to the assay for TNF-α by ELISA procedure (R&D Systems). […]

In the case of “Dimethyl-[3-(11-methoxy-8-oxa-1-thia-benzo[e]naphtho[3,2-h]azulene-2-ylmethoxy)-propyl]-amine [Example 7]”, the “activity in at least two investigated assays” value is reported as “show activity in at least two investigated assays”.
